Measured values reported in patent US20060217305A1, “Induction of tumor cell senescence by retinoid receptor agonists and antagonists” (Ordway Research Institute, Inc., priority 2005, published 2006).
“Also recorded” adds a separate entry of the source. Like-named read-outs stand apart in the source and are kept apart here.

What was measured:
Assay type in all cases: cell-based, human
[1] = system: retinoid-inducible genes EPLIN, UBD, IGFBP3, TGFB1 and TRIM31 in MCF-7 cells (subline MCF-7 3′SS6); test: real-time RT-PCR (QPCR) of retinoid-inducible gene expression, 2 days treatment; settings: for Fold induction EPLIN / Fold induction IGFBP3 / Fold induction TGFBI / Fold induction TRIM31 / Fold induction UBD / fold induction at 0.1 µM: 2 days, MCF-7; for fold induction at 0.1 µM: Homo sapiens, MCF7, 48 h
From the text: The following compounds were obtained from Ligand Pharmaceuticals (San Diego, Calif.). LGD1550 is a pan-RAR agonist. LGD1268 is a pan-RXR agonist. LG100815 is a pan-RAR antagonist. LG101208 is a pan-RXR antagonist. The LG100815 compound is a specific RAR antagonist that binds to RAR, but fails to activate its Retinoic Acid Responsive Element (RARE)-dependent transcription transactivation function (see Lee et al, Mol. Cell Biol. 19: 1973-1980 (1999)). Also used was all-trans retinoic acid (RA), the most commonly used RAR agonist. To determine how these compounds affect the expression of retinoid-inducible growth inhibitory genes EPLIN, UBD, IGFBP3 and TGFB1, as well as TRIM31 gene that contains a putative RARE element in its promoter, MCF-7 cells (subline MCF-7 3′SS6) were treated with individual compounds or their combinations for 2 days, and RNA was extracted by standard procedures. In the initial assays, gene expression was analyzed by semi-quantitative reverse transcription-PCR (RT-PCR), as described in Dokmanovic et al., Cancer Biology & Therapy 1:24-27 (2002). In subsequent assays, the initial results were confirmed, expanded and quantitated by real-time RT-PCR (QPCR), using Applied BioSystems 7900HT real-time PCR instrument. β-actin was used as a normalization standard.
cDNA was prepared by reverse transcription with random primer using 4 μg total RNA. 5 μl SYBR Green PCR Master Mix (Applied Biosystems) was mixed with […] cDNA and 0.8 pmol of gene-specific primers and brought up to 10 μl with ultra pure H2O in 384-well optical plates. For amplification, reaction mixtures were heated for 2 min at 50° C. and 10 min at 95° C., followed by 40 cycles of two-step PCR consisting of 15 sec at 95° C. and 1 min at 60° C., to construct dissociation curves and verify that single PCR products were obtained. PCR products were also analyzed by gel electrophoresis to confirm that a single product of the expected size was amplified. […] The comparative CT method for relative quantitation of gene expression described by Applied Biosystems was used to determine expression levels for target genes. Experiments were carried out in triplicate for each data point. Sequence Detection Systems software version 2.1 (Applied Biosystems) and Microsoft Excel were used for data analysis.

MCF-7 cells [2] = test: MCF-7 cell growth, cell number after 7 days; settings: 100 nM RA, LGD1550, LGD1268, 10 μM LG100815, LG101208
Description: The bars represent cell number after 7 days of culture with the addition of DMSO (control), 100 nM RA, 100 nM RAR agonist LGD1550, 100 nM RXR agonist LGD1268, 10 μM RAR antagonist LG100815, and 10 μM RXR antagonist LG101208. Experiments were done in triplicate, and the results are expressed relative to the average of the control.
(§1) To test this, we have analyzed the effects of different compounds on the growth of MCF-7 cells, as measured by the cell number after 7 days exposure to the compounds (FIG. 2) and on the fraction of cells expressing the senescence-associated β-galactosidase activity (SA-β-gal), a marker of senescence, after 7-day treatment with the compounds (FIG. 3).

MCF-7 cells [3] = test: senescence-associated β-galactosidase (SA-β-gal) positive cells; settings: 7-day treatment (FIG. 3 legend: 8 days); concentrations as in FIG. 2
From the text: The bars represent percentages of SA-β-gal+ cells after 8 days of treatment with the indicated compounds (in triplicate). The compounds were used at the same concentrations as in FIG. 2.
as §1

[4] = system: DR5 RARE-containing promoter in MCF-7 cells; test: DR5-luciferase transient transfection assay (RARE-dependent transcription); settings: 100 nM, 24 hrs
Description: The assays were carried out in triplicate. RA is all-trans retinoic acid. LGD1550 is a pan-RAR agonist. LG100815 is a pan-RAR antagonist.
To confirm the ability of LG100815 to antagonize RARE-dependent induction of transcription analysis of firefly luciferase expression from a RARE-containing artificial promoter DR5 (Stratagene, catalog number 240119) was performed. Cells were plated to the density of 3×10^5 in P60 24 hrs before transient transfection. DR5 reporter plasmid (4 μg) was mixed with the SV40-driven-Renilla luciferase control plasmid (0.04 μg) and transfected using Lipofectamine Plus (Life Technologies/Invitrogen, Carlsbad, Calif.) as described by the manufacturer. 3 hrs after transfection, cells were rinsed three times with PBS, trypsinized and replated in a 12-well plate to the density of 5×10^4 cells per well. Retinoid agonists and antagonists were added 48 hrs later, and the luciferase assay was performed after another 24 hrs.

Cc1cc2c(cc1C1(c3ccc(C(=O)O)cn3)CC1)C(C)(C)CCC2(C)C [LGD1268]
Fold induction EPLIN ([1]; 100 nM): 1.2 ± 0.2 fold
Fold induction IGFBP3 ([1]; 100 nM): 1.2 ± 0.5 fold
Fold induction TGFBI ([1]; 100 nM): 1.9 ± 1.1 fold
Fold induction TRIM31 ([1]; 100 nM): 1.3 ± 0.4 fold
Fold induction UBD ([1]; 100 nM): 1.0 ± 0.1 fold
Fold induction EPLIN ([1]; 1 μM): 1.0 ± 0.1 fold
Fold induction IGFBP3 ([1]; 1 μM): 0.9 ± 1.1 fold
Fold induction TGFBI ([1]; 1 μM): 2.2 ± 1.0 fold
Fold induction TRIM31 ([1]; 1 μM): 1.4 ± 0.7 fold
Fold induction UBD ([1]; 1 μM): 0.8 ± 0.2 fold
Fold induction EPLIN ([1]; 10 μM): 1.4 ± 0.2 fold
Fold induction IGFBP3 ([1]; 10 μM): 1.2 ± 0.4 fold
Fold induction TGFBI ([1]; 10 μM): 2.4 ± 0.3 fold
Fold induction TRIM31 ([1]; 10 μM): 3.8 ± 0.7 fold
Fold induction UBD ([1]; 10 μM): 1.0 ± 0.2 fold
effect on expression of the five genes (IGFBP3, EPLIN, UBD, TGFB1, TRIM31) ([1]; summary of Table 2, MCF-7): induced only one of five genes (TGFB1)
effect on MCF-7 cell growth (cell number) (MCF-7 cells [2]): did not inhibit cell growth; also recorded: modest but reproducible increase in cell growth
induction of senescent phenotype (SA-β-gal+ cells) (MCF-7 cells [3]): did not induce the senescent phenotype

CC1=C(/C=C/C(C)=C/C=C/C(C)=C/C(=O)O)C(C)(C)CCC1 [RA, all-trans retinoic acid]
induction of luciferase expression from DR5 RARE-containing promoter [4]: approximately 50 fold
ratio of the fold-induction of TGFB1 relative to TRIM31 ([1]; 100 nM): 0.19
fold induction at 0.1 µM ([1]; 100 nM, read-out: Fold induction EPLIN): 3.1 ± 0.7
fold induction at 0.1 µM ([1]; 100 nM, read-out: Fold induction IGFBP3): 2.5 ± 0.5
fold induction at 0.1 µM ([1]; 100 nM, read-out: Fold induction TGFBI): 6.5 ± 1.4
fold induction at 0.1 µM ([1]; 100 nM, read-out: Fold induction TRIM31): 34.4 ± 3.9
fold induction at 0.1 µM ([1]; 100 nM, read-out: Fold induction UBD): 8.5 ± 2.8
